These results are taken from ChEMBL document CHEMBL1201862, “PubChem BioAssay data set” (2004).

Calls of active or inactive are those of the source.

Assay [1] deals with Protein kinase C delta type (Homo sapiens, UniProt Q05655). In kind it is functional.
Assay [2] has as its target Phosphorylase b kinase gamma catalytic chain, liver/testis isoform (Homo sapiens, UniProt P15735). In kind it is functional.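 Also: PHKG2 measured as one member of a kinome-wide kinase panel.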
The target of assay [3] is Receptor tyrosine-protein kinase erbB-4 (Homo sapiens, UniProt Q15303). In kind it is functional.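 Also: ERBB4 member of a kinome-wide kinase profiling panel.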
Assay [4] addresses RAC-alpha serine/threonine-protein kinase (Homo sapiens, UniProt P31749). The format is functional.
Assay [5] has as its target High affinity nerve growth factor receptor (Homo sapiens, UniProt P04629). In kind it is functional.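 Also: NTRK1 tested as one member of a kinome-wide profiling panel.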
The target in assay [6] is Vascular endothelial growth factor receptor 1 (Homo sapiens, UniProt P17948). The format is functional.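 Also: measured within a kinome-wide profiling panel, FLT1 as the panel member.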
In assay [7] the target is Aurora kinase B (Homo sapiens, UniProt Q96GD4). In kind it is functional.
For assay [8], the target named is Tyrosine-protein kinase SYK (Homo sapiens, UniProt P43405). The format is functional.
Assay [9] has as its target Tyrosine-protein kinase FRK (Homo sapiens, UniProt P42685). The format is functional.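 Also: FRK tested as one member of a kinome panel.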
Assay [10] concerns the target BDNF/NT-3 growth factors receptor (Homo sapiens, UniProt Q16620). The format is functional.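 Also: NTRK2 measured as one member of a broad kinome-wide kinase profiling panel.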
The target of assay [11] is Serine/threonine-protein kinase 17A (Homo sapiens, UniProt Q9UEE5). In kind it is functional.
In assay [12] the target is 3-phosphoinositide-dependent protein kinase 1 (Homo sapiens, UniProt O15530). The format is functional.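 Also: value comes from the Navigating the Kinome panel, PDPK1 member.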
Assay [13] addresses Serine/threonine-protein kinase PLK4 (Homo sapiens, UniProt O00444). The format is functional.
Assay [14] deals with Calcium/calmodulin-dependent protein kinase type 1 (Homo sapiens, UniProt Q14012). In kind it is functional.
Assay [15] has as its target Tyrosine-protein kinase receptor TYRO3 (Homo sapiens, UniProt Q06418). The format is functional.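 Also: TYRO3 value obtained as one member of a kinome-wide profiling panel.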
For assay [16], the target named is MAP kinase-activated protein kinase 5 (Homo sapiens, UniProt Q8IW41). In kind it is functional.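 Also: measured as one member of a kinome panel.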
Assay [17] deals with Proto-oncogene tyrosine-protein kinase Src (Homo sapiens, UniProt P12931). The format is functional.
Assay [18] concerns the target Tyrosine-protein kinase JAK3 (Homo sapiens, UniProt P52333). The format is functional.
Assay [19] addresses MAP kinase-activated protein kinase 3 (Homo sapiens, UniProt Q16644). In kind it is functional.
Assay [20] addresses Mast/stem cell growth factor receptor Kit (Homo sapiens, UniProt P10721). The format is functional.
The target in assay [21] is Cell division cycle 7-related protein kinase (Homo sapiens, UniProt O00311). The format is functional.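 Also: value obtained from a kinome-wide kinase panel.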
Assay [22] addresses Homeodomain-interacting protein kinase 4 (Homo sapiens, UniProt Q8NE63). In kind it is functional.
The target in assay [23] is Dual specificity tyrosine-phosphorylation-regulated kinase 4 (Homo sapiens, UniProt Q9NR20). In kind it is functional.
The target in assay [24] is Fibroblast growth factor receptor 3 (Homo sapiens, UniProt P22607). The format is functional.
In assay [25] the target is Cyclin-dependent kinase 7 (Homo sapiens, UniProt P50613). In kind it is functional.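 Also: value comes from a kinome-wide kinase profiling panel in which CDK7 is one member.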
Assay [26] deals with ALK tyrosine kinase receptor (Homo sapiens, UniProt Q9UM73). The format is functional.
The target in assay [27] is Casein kinase I isoform delta (Homo sapiens, UniProt P48730). The format is functional.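 Also: measured as one member (CSNK1D) of a kinome panel.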
For assay [28], the target named is Homeodomain-interacting protein kinase 2 (Homo sapiens, UniProt Q9H2X6). In kind it is functional.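 Also: measured within a kinome-wide kinase profiling panel, HIPK2 being one panel member.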
The target in assay [29] is T1, 1-phosphatidylinositol 4,5-bisphosphate phosphodiesterase beta-3 (Homo sapiens, UniProt Q01970).
T1 sequence (Q01970 whole entry): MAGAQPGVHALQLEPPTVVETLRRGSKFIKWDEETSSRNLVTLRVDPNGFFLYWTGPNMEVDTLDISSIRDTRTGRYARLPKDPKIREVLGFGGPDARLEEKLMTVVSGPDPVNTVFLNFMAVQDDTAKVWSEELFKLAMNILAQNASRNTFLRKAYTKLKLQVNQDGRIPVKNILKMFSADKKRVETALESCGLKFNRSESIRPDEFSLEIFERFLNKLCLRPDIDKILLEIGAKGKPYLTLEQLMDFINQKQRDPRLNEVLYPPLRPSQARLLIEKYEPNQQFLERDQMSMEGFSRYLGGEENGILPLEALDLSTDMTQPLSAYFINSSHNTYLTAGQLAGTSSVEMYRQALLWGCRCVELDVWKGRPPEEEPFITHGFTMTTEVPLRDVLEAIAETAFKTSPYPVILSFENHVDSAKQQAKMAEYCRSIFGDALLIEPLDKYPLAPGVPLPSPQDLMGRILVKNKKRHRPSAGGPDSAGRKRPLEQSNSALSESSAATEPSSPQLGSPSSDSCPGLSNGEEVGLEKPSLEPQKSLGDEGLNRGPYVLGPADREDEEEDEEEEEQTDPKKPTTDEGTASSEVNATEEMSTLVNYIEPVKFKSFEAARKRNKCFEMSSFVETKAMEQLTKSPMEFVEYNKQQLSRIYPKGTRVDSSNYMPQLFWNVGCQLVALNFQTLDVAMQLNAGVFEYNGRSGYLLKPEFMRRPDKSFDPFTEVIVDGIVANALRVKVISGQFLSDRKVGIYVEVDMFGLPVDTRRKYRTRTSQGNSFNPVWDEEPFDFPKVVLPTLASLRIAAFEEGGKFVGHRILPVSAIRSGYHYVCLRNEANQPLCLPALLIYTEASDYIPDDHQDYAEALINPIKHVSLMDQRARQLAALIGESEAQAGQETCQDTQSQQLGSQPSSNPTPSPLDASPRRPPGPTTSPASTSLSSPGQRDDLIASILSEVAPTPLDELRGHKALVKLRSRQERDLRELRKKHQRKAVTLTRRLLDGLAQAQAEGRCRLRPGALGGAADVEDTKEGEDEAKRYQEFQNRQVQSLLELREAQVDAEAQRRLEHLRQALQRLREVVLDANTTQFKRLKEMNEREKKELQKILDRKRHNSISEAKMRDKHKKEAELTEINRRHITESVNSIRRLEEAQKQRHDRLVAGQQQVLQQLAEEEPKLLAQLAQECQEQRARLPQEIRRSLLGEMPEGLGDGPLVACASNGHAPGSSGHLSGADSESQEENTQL
Description: Fluorescence-based biochemical high throughput dose response assay to identify inhibitors of phospholipase C isozymes (PLC-B3).

Chain of Mast/stem cell growth factor receptor Kit (P10721 whole entry): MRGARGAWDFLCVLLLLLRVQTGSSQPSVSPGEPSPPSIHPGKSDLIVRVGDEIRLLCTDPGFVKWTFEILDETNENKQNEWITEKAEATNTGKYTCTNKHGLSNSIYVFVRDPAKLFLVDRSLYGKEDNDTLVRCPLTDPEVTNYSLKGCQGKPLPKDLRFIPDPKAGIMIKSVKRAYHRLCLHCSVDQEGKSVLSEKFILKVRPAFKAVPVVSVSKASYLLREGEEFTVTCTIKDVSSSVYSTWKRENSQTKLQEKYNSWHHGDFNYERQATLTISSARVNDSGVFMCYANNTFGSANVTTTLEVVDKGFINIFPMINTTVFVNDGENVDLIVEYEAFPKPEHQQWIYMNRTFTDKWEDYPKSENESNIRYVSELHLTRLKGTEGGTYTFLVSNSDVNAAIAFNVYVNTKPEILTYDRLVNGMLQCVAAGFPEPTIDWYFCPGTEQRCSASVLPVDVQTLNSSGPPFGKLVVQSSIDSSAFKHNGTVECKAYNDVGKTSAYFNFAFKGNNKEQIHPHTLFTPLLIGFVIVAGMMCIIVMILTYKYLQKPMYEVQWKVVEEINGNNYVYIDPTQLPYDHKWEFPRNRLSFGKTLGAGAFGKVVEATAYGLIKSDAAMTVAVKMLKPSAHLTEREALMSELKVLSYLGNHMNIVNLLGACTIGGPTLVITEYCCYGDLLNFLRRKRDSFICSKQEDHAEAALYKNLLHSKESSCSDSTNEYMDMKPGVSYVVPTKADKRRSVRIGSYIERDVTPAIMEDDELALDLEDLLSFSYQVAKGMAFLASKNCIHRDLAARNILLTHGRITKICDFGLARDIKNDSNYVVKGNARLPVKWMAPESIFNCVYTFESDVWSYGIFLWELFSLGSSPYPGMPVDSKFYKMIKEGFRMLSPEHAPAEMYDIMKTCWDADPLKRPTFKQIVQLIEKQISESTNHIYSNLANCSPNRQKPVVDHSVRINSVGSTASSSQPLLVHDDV
Chain of High affinity nerve growth factor receptor (P04629 whole entry): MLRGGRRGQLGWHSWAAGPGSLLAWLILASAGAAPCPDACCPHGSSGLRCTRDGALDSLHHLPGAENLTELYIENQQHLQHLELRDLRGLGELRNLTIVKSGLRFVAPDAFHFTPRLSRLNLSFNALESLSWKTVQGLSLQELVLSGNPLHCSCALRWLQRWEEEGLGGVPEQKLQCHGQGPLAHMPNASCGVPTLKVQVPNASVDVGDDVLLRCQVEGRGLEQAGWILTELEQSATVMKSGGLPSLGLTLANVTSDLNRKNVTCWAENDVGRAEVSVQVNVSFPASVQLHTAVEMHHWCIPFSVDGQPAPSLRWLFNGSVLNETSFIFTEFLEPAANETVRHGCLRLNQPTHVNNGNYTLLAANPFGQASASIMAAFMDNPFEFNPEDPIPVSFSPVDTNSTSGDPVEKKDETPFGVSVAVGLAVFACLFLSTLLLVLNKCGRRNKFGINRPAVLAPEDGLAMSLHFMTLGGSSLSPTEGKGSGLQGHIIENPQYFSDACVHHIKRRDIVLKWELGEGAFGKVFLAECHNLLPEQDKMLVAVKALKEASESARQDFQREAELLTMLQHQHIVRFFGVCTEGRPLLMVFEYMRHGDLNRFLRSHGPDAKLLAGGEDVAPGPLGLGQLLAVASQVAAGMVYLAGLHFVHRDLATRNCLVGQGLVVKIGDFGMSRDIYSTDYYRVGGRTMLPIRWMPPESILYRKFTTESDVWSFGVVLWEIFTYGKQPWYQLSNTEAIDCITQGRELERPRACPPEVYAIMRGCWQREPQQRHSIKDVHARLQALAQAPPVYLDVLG
Chain of Serine/threonine-protein kinase PLK4 (O00444 whole entry): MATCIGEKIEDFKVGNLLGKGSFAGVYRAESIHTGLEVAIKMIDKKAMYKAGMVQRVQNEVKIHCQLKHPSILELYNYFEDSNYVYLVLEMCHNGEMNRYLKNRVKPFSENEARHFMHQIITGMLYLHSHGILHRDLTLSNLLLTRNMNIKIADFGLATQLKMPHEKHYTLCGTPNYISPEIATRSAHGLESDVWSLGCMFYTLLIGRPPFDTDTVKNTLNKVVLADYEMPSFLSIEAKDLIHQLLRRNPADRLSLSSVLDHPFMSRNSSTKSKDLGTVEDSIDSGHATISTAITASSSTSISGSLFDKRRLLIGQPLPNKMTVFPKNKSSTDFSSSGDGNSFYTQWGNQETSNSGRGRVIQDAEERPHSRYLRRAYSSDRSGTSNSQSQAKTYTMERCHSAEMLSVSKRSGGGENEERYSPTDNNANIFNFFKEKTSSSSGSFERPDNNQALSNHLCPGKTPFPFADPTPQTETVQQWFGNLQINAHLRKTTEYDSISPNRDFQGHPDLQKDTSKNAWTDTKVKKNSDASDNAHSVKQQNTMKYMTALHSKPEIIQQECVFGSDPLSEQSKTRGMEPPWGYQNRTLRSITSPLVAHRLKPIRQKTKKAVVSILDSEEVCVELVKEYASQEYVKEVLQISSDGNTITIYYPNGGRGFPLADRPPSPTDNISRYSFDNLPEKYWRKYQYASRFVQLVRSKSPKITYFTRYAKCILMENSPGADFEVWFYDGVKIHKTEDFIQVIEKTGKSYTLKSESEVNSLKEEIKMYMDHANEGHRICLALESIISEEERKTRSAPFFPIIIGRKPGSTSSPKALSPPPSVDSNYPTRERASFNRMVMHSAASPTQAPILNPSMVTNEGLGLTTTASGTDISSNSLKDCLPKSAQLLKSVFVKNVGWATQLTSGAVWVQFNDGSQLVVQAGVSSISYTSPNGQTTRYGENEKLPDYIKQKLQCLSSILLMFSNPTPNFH
Chain of Aurora kinase B (Q96GD4 whole entry): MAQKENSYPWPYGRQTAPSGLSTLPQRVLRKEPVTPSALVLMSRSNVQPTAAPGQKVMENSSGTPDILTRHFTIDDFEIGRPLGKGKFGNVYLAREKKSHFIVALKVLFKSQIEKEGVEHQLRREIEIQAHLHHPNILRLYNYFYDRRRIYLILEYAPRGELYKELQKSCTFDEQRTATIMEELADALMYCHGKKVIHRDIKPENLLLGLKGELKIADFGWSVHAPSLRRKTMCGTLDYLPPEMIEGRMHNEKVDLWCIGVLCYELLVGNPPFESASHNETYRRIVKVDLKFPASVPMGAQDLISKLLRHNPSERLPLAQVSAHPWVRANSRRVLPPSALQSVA
Chain of Receptor tyrosine-protein kinase erbB-4 (Q15303 whole entry): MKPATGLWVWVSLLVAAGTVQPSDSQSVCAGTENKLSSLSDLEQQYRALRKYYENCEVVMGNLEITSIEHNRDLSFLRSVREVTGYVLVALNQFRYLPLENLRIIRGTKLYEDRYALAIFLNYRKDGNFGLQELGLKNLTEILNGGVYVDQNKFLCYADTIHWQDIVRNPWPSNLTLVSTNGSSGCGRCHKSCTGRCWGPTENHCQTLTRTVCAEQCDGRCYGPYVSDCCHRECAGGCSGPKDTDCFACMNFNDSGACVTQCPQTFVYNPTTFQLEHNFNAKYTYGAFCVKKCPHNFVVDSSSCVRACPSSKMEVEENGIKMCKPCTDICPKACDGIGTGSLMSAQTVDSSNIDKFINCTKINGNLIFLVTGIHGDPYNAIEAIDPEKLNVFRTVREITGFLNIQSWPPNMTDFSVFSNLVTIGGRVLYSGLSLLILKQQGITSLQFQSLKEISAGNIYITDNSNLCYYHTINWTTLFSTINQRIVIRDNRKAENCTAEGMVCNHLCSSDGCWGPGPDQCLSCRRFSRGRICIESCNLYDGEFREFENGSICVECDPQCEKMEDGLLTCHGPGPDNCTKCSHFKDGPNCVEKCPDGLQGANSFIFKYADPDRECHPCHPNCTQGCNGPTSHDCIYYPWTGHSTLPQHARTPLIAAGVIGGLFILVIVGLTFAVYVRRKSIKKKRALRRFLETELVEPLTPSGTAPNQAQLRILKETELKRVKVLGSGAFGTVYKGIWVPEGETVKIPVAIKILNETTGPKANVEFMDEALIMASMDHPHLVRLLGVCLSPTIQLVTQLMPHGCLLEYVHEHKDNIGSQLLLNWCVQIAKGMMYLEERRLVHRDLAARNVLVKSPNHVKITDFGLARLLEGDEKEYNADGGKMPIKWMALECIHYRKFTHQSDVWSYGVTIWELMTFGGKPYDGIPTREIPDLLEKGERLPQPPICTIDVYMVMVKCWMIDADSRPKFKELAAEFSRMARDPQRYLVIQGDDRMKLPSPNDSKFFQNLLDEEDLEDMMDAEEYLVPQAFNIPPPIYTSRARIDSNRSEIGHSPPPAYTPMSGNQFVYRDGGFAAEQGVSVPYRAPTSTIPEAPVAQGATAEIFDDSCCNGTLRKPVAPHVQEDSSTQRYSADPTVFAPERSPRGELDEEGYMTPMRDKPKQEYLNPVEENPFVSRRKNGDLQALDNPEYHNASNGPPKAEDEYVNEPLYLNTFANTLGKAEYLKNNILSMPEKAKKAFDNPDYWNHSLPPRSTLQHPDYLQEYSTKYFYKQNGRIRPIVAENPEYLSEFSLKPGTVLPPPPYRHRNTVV
Chain of RAC-alpha serine/threonine-protein kinase (P31749 whole entry): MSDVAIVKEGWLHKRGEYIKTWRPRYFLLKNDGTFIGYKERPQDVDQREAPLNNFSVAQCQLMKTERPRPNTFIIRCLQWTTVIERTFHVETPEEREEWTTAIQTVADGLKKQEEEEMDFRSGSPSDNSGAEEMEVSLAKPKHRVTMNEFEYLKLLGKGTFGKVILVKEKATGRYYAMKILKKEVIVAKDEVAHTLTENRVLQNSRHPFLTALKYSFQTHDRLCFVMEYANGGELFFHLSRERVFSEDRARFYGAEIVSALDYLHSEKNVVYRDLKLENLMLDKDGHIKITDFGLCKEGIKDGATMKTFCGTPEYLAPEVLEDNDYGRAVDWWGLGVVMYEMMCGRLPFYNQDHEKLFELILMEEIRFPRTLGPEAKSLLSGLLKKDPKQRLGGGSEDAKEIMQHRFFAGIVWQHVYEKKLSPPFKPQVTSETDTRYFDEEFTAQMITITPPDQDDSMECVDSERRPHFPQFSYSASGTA

In the case of `Clc1cc(NC2CCCCC2)nc(-c2c[nH]c3ncccc23)n1`, the Ki – broadly, a dissociation constant, usually derived from enzyme kinetics or from competition with a known ligand – in assay [1] was 316 nM (active); in [2], > 5010 nM (inactive); in assay [3], > 3980 nM (inactive); in [4] it was 2000 nM (active); in [5], > 2510 nM (inactive); in assay [6], > 398 nM (inactive). In addition, the Ki in [7] is 1000 nM (active); in assay [8], 316 nM (active); in [9], > 2510 nM (inactive); in [10] it was > 5010 nM (inactive); in assay [11], > 2510 nM (inactive); in [12] it was 79.4 nM (active). In addition, the Ki in assay [13] is > 3980 nM (inactive); in assay [14], > 1000 nM (inactive); in assay [15] it was > 2510 nM (inactive); in assay [16], > 1580 nM (inactive); in assay [17], > 2000 nM (inactive); in [18] it was > 2000 nM (inactive). For the same compound, the Ki in [19] is > 10000 nM (inactive); in assay [20], > 1260 nM (inactive); in assay [21], 2 nM (active); in assay [22], 1260 nM (active); in [23] it was 1260 nM (active); in assay [24], > 2000 nM (inactive). For the same compound, the Ki in assay [25] is > 6310 nM (inactive); in assay [26], > 3980 nM (inactive); in [27] it was 1260 nM (active); in assay [28], 631 nM (active).

As to `Cc1ccc(/C=C2/C(=O)c3ccc(C(=O)O)cc3C2=O)o1`, the IC50 (commonly the concentration that inhibits the measured activity by half) in assay [29] is > 122000 nM (inactive).
